Where no end group is shown, it is not given here. [ ]: non-standard residue; d: D form. LINKER = not defined here

The nature of series [1]: Transmission Electron Microscopy (TEM) of loaded mini-nucleosomes (shape). Format: physicochemical. Particulars: Luciferase plasmid (SEQ ID NO: 396) condensed with core protein; final formulation in sterile, endotoxin free water. An excerpt: Provided in this Example are techniques to produce loaded mini-nucleosomes in various formulations, including formulations useful for administration to cells and to mammalian subjects, e.g., humans. Loaded mini-nucleosomes can be formulated to different shape and/or sizes parameters based on the mini-nucleosome core protein amino acid sequence and the buffer conditions in which the synthesis occurs. Loaded mini-nucleosomes can be formulated in different conditions, e.g., with solubility suitable for therapeutic use. Solubility of loaded mini-nucleosomes in water and/or normal saline is one means to allow non-toxic formulation of compositions for administration to patients, and to ease of delivery into patients. To form loaded mini-nucleosomes represented in FIG. 7, core proteins were synthesized by solid phase synthesis using trifluoroacetate buffers. 200 micrograms of DNA (SEQ ID NO: 396) were added to 1 milligram of lyophilized core proteins and vortexed together, and purified to produce loaded mini-nucleosomes (FIG. 7). Buffer exchange was performed and final formulation of mini-nucleosome was made in sterile, endotoxin free water. 1 microgram of each kind of mini-nucleosomes was diluted in water and then placed on grids that were stained with freshly prepared in 0.75% uranyl acetate in methanol solution for two minutes. […]

In series [2] the test system is muscle cells. As to the kind of experiment: Intramuscular delivery, GFP fluorescence and dystrophin immunolabeling in leg muscle sections. Format: in vivo. Particulars: 17.5 ug per leg, Balb/c mice, 3-months post injection. As to the method:
Balb/c mice were anesthetized by IP injection with Ketamine/Xylazine (90-100 mg/kg+10 mg/kg) and several loaded mini-nucleosomes were injected into both leg muscle at 17.5 ug doses per leg using an insulin syringe (Total dose 35 micrograms per mice). Mice were sacrificed at various time points and leg muscle were obtained for tissue sections. […] One skilled in the art may contemplate combining such domains with other domains known for muscle tropism.
To validate muscle specificity of expression of genes encoded by the nucleic acid cargo, we utilized dystrophin immunolabeling as an endogenous secondary marker. […] Native fluorescence of GFP was obtained in the 486-nm channel of Leica SP5 scope. Dystrophin in red is the RFP channel (555-nm). Untransduced muscle cells in figure also serve as internal control for differentiation between GFP signal and autofluorescence.

Series [3] deals with retina and RPE cells. Nature of the series: Intraocular (intravitreal) delivery, native GFP fluorescence in retinal sections and RPE whole mounts. Format: in vivo. Particulars: 1.5 micrograms, Balb/c mice. The procedure:
In the present Example, Balb/c mice were anesthetized by IP injection with Ketamine/Xylazine (90-100 mg/kg+10 mg/kg) and positioned underneath a microscope. Mice eyes were dilated with topical Tropicamide (1%) and 1 ul of loaded mini-nucleosomes (total dose 1.5 micrograms in mice) were injected into the vitreous cavity using 32 gauze blunt needle passing through the incision made by a 25-gauze needle below the limbus. At various time points, mice were perfused with 10 ml of 1×PBS, and then sacrificed using standard techniques. Mice were enucleated and eyecups were collected and incubated in 4% paraformaldehyde overnight. The eyecups were washed with 1×PBS, then immersed in 15% sucrose for few hours and then in 30% sucrose solution overnight for cryopreservation. The eyecups were then placed in a plastic vial and frozen using OCT compound for cryo-sectioning. 10-micron thick tissue sections were obtained for staining. The retinal sections were mounted with mounting media with or without DAPI, coverslip and sealed. Images were acquired by Leica SP5. For whole mount imaging, eyecups were fixed in 4% paraformaldehyde overnight. Eyecups were washed in 1×PBS, retina was removed and the remaining eyecup or RPE wholemount was processed for staining. The RPE tissue was whole mounted with mounting media, coverslip and sealed. Images were acquired by Leica SP5.
To target the RPE cells, the present Example utilized a mini-nucleosome core protein (SEQ ID NO: 392) that could bind to the phagocytic proteins like MERTK. RPE are phagocytic cells, that extend their microvilli to the photoreceptor inner/outer segment junction. MERTK is expressed in those microvilli. In SEQ ID NO: 392, we incorporated the “eat me” signals as descried in Table 8. In literature, “eat me” signals are described as domains exposed in cellular debris that are primed for phagocytosis (Wei Li, Journal of Cell physiology, 2016, which is incorporated herein by reference). To the present inventor's knowledge, these “eat me” signals have never been utilized in the context of non-viral vectors before. […]

In the case of “CKKKKKKKKKKKKKKKKKKKKKKKKKKKKKK [SEQ ID NO: 393, reference compound]”, in series [1], the “Shape of loaded mini-nucleosome (TEM)” value was “spiral/helical-shaped”. In addition, the “GFP fluorescence in muscle tissue sections at 3 months” value (from here on “GFP fluorescence”) in series [2] is given as “didn't exhibit GFP fluorescence”.
In the case of “KKKRHRKKKKK-[LINKER]-RGD-[LINKER]-KKKK-[LINKER]-NTQIH-[LINKER]-RRRRR-[LINKER]-TPH-[LINKER]-KK (KKKRHRKKKKK[LINKER]RGD[LINKER]KKKK[LINKER]NTQIH[LINKER]RRRRR[LINKER]TPH[LINKER]KK; reading uncertain; also: linker structure not given here) [SEQ ID NO: 391]”, the “Shape of loaded mini-nucleosome (TEM)” value in series [1] was “mixture of circular and rod like molecules”. The “GFP fluorescence” value in series [2] is reported as “sharp green fluorescence in skeletal muscle cells”.
In the case of “KKKRHRKRKRKRKRRRRKKK-[LINKER]-ASSLNIAK-[LINKER]-RRRR (KKKRHRKRKRKRKRRRRKKK[LINKER]ASSLNIAK[LINKER]RRRR; reading uncertain; also: linker structure not given here) [SEQ ID NO: 389]”, in series [2], the “GFP fluorescence” value is “didn't exhibit GFP fluorescence”.
As for “SEQ ID NO. 388 (KKRHRKLREKRHRKLRRRRRLKRHRKKRHRKLREK; not fully specified)”, the “GFP expression / transduction in retina and RPE” value in series [3] is on record as “express GFP to target neuronal cells in the retina”.
“SEQ ID NO. 392 (KKKRKKTKKKAKKALKKKKKGKKKKRRRRKAAPKK; not fully specified)”: the “GFP expression / transduction in retina and RPE” value in series [3] is “enhanced uptake into the RPE”.
The same measure, in the same setting: as for “SEQ ID NO:388 (KKRHRKLREKRHRKLRRRRRLKRHRKKRHRKLREK; not fully specified)”, the entry is “transduction into ganglion cells, bipolar cells and photoreceptors”.

For the origin of these results see US12428445B2, “Mini-nucleosome core proteins and use in nucleic acid delivery” (priority 2018, dated 2025).
